Test results published in US6914045B2, “Glycopeptide antibiotics” (Wyeth Holdings Corporation, priority 2001, dated 2005).
Values after ≈ are worked out from the molar mass of the structure shown.

How the values were obtained:
Staphylococcus sp. = experiment: in vitro antibacterial evaluation, MIC by broth dilution; type: cell-based; details: broth dilution, 18 hours at 35° C.
In short: (§1)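 Inoculum 5×10^5 CFU/mL; concentrations 64 to 0.06 μg/mL; MIC defined as lowest inhibitory level. Conducted by broth dilution under NCCLS guidelines.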

Enterococcus sp. = experiment: as above; type: cell-based; details: broth dilution, 18 hours at 35° C.
In short: as §1

Streptococcus sp. = experiment: as above; type: cell-based; details: broth dilution, 18 hours at 35° C.
In short: as §1

Escherichia coli = experiment: as above; type: cell-based; details: 18 hours at 35° C.
In short: as §1

[1] = test system: Staphylococcus aureus-SMITH (GC 4543); experiment: acute lethal infection in mice; type: in vivo; details: acute lethal infection, female CD-1 mice, intraperitoneal challenge, intravenous 30 min. after infection, 7 day survival
In short: (§2)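 Mice (female CD-1, 20+/−2 gm) receive bacteria ip in broth or hog gastric mucin, then test agent iv after 30 min. Median effective dose is calculated from 7 day survival pooled across 3 tests.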

[2] = test system: Enterococcus faecalis (GC 6189); experiment: acute lethal infection in mice; type: in vivo; details: female CD-1 mice, intraperitoneal challenge, intravenous 30 min. after infection, 7 day survival
In short: as §2

CC(c1ccccc1)C1NC(=O)CNC(=O)C(CO)NC(=O)C(C(O)C2CNC(=N)N2C2OC(CO)C(O)C(O)C2O)NC(=O)C(C(O)C2CNC(=N)N2)NC(=O)C(Cc2ccc(OC3OC(CO)C(OC4OC5COC(CC6CCN(C(=O)OCc7ccccc7)CC6)OC5C(O)C4O)C(O)C3O)cc2)NC1=O (stereo not drawn) [Example 113, Cyclo[glycyl-β-methylphenylalanyl-O-[4-O-[4,6-O-[2-[1-[(phenylmethoxy)carbonyl]piperidin-4-yl]ethylidene]hexopyranosyl]hexopyranosyl]tyrosyl-3-(2-iminoimidazolidin-4-yl)seryl-3-(3-hexopyranosyl-2-iminoimidazolidin-4-yl)serylseryl]]
MIC Coagulase Negative Staphylococcus (GC 4547) (Staphylococcus sp.): 1 µg/mL (≈ 0.65 µM) | MIC Coagulase Negative Staphylococcus (GC 4548) (Staphylococcus sp.): 0.5 µg/mL (≈ 0.325 µM) | MIC Coagulase Negative Staphylococcus (GC 4549) (Staphylococcus sp.): 1 µg/mL (≈ 0.65 µM) | MIC Coagulase Negative Staphylococcus (GC 4551) (Staphylococcus sp.): 1 µg/mL (≈ 0.65 µM) | MIC Coagulase Negative Staphylococcus (GC 6257) (Staphylococcus sp.): 0.5 µg/mL (≈ 0.325 µM) | MIC Staphylococcus aureus (ATCC 29213) (Staphylococcus sp.): 1 µg/mL (≈ 0.65 µM) | MIC Staphylococcus aureus (GC 1131) (Staphylococcus sp.): 2 µg/mL (≈ 1.3 µM) | MIC Staphylococcus aureus (GC 3051) (Staphylococcus sp.): 1 µg/mL (≈ 0.65 µM) | MIC Staphylococcus aureus (GC 3053) (Staphylococcus sp.): 1 µg/mL (≈ 0.65 µM) | MIC Staphylococcus aureus (GC 4541) (Staphylococcus sp.): 1 µg/mL (≈ 0.65 µM) | MIC Staphylococcus aureus (GC 4542) (Staphylococcus sp.): 1 µg/mL (≈ 0.65 µM) | MIC Staphylococcus aureus (GC 4544) (Staphylococcus sp.): 2 µg/mL (≈ 1.3 µM) | MIC Staphylococcus aureus (GC 4545) (Staphylococcus sp.): 1 µg/mL (≈ 0.65 µM) | MIC Staphylococcus aureus-SMITH (GC 4543) (Staphylococcus sp.): 1 µg/mL (≈ 0.65 µM) | MIC Staphylococcus haemolyticus (GC 4546) (Staphylococcus sp.): 1 µg/mL (≈ 0.65 µM) | MIC Staphylococcus aureus (GC 1131) (Staphylococcus sp.; inoculum 5×10^5 CFU/mL, strain GC 1131): 2 µg/mL (≈ 1.3 µM) | MIC Staphylococcus aureus (ATCC 29213) (Staphylococcus sp.; strain ATCC 29213): 1 µg/mL (≈ 0.65 µM) | MIC Staphylococcus aureus (GC 3051) (Staphylococcus sp.; strain GC 3051): 1 µg/mL (≈ 0.65 µM) | MIC Staphylococcus aureus (GC 3053) (Staphylococcus sp.; strain GC 3053): 1 µg/mL (≈ 0.65 µM) | MIC Staphylococcus aureus (GC 4541) (Staphylococcus sp.; strain GC 4541): 1 µg/mL (≈ 0.65 µM) | MIC Staphylococcus aureus (GC 4542) (Staphylococcus sp.; strain GC 4542): 1 µg/mL (≈ 0.65 µM) | MIC Staphylococcus aureus (GC 4544) (Staphylococcus sp.; strain GC 4544): 2 µg/mL (≈ 1.3 µM) | MIC Staphylococcus aureus (GC 4545) (Staphylococcus sp.; strain GC 4545): 1 µg/mL (≈ 0.65 µM) | MIC Staphylococcus haemolyticus (GC 4546) (Staphylococcus sp.; strain GC 4546): 1 µg/mL (≈ 0.65 µM) | MIC Coagulase Negative Staphylococcus (GC 4547) (Staphylococcus sp.; strain GC 4547): 1 µg/mL (≈ 0.65 µM) | MIC Coagulase Negative Staphylococcus (GC 4548) (Staphylococcus sp.; strain GC 4548): 0.5 µg/mL (≈ 0.325 µM) | MIC Coagulase Negative Staphylococcus (GC 4549) (Staphylococcus sp.; strain GC 4549): 1 µg/mL (≈ 0.65 µM) | MIC Coagulase Negative Staphylococcus (GC 4551) (Staphylococcus sp.; strain GC 4551): 1 µg/mL (≈ 0.65 µM) | MIC Coagulase Negative Staphylococcus (GC 6257) (Staphylococcus sp.; strain GC 6257): 0.5 µg/mL (≈ 0.325 µM) | MIC Staphylococcus aureus-SMITH (GC 4543) (Staphylococcus sp.; strain SMITH GC 4543): 1 µg/mL (≈ 0.65 µM) | MIC Enterococcus avium (GC 4558) (Enterococcus sp.; Enterococcus avium (GC 4558)): 2 µg/mL (≈ 1.3 µM) | MIC Enterococcus faecalis (ATCC 29212) (Enterococcus sp.; Enterococcus faecalis (ATCC 29212)): 2 µg/mL (≈ 1.3 µM) | MIC Enterococcus faecalis (GC 2242) (Enterococcus sp.; Enterococcus faecalis (GC 2242)): 4 µg/mL (≈ 2.6 µM) | MIC Enterococcus faecalis (GC 2691) (Enterococcus sp.; Enterococcus faecalis (GC 2691)): 4 µg/mL (≈ 2.6 µM) | MIC Enterococcus faecalis (GC 3059) (Enterococcus sp.; Enterococcus faecalis (GC 3059)): 2 µg/mL (≈ 1.3 µM) | MIC Enterococcus faecalis (GC 4552) (Enterococcus sp.; Enterococcus faecalis (GC 4552)): 2 µg/mL (≈ 1.3 µM) | MIC Enterococcus faecalis (GC 4553) (Enterococcus sp.; Enterococcus faecalis (GC 4553)): 2 µg/mL (≈ 1.3 µM) | MIC Enterococcus faecalis (GC 4554) (Enterococcus sp.; Enterococcus faecalis (GC 4554)): 2 µg/mL (≈ 1.3 µM) | MIC Enterococcus faecalis (GC 6189) (Enterococcus sp.; Enterococcus faecalis (GC 6189)): 2 µg/mL (≈ 1.3 µM) | MIC Enterococcus faecium (GC 2243) (Enterococcus sp.; Enterococcus faecium (GC 2243)): 2 µg/mL (≈ 1.3 µM) | MIC Enterococcus faecium (GC 4556) (Enterococcus sp.; Enterococcus faecium (GC 4556)): 2 µg/mL (≈ 1.3 µM) | MIC Enterococcus faecium (GC 4557) (Enterococcus sp.; Enterococcus faecium (GC 4557)): 2 µg/mL (≈ 1.3 µM) | MIC Enterococcus faecalis (ATCC 29212) (Enterococcus sp.; strain ATCC 29212): 2 µg/mL (≈ 1.3 µM) | MIC Enterococcus faecalis (GC 2242) (Enterococcus sp.; strain GC 2242): 4 µg/mL (≈ 2.6 µM) | MIC Enterococcus faecium (GC 2243) (Enterococcus sp.; strain GC 2243): 2 µg/mL (≈ 1.3 µM) | MIC Enterococcus faecalis (GC 2691) (Enterococcus sp.; strain GC 2691): 4 µg/mL (≈ 2.6 µM) | MIC Enterococcus faecalis (GC 3059) (Enterococcus sp.; strain GC 3059): 2 µg/mL (≈ 1.3 µM) | MIC Enterococcus faecalis (GC 4552) (Enterococcus sp.; strain GC 4552): 2 µg/mL (≈ 1.3 µM) | MIC Enterococcus faecalis (GC 4553) (Enterococcus sp.; strain GC 4553): 2 µg/mL (≈ 1.3 µM) | MIC Enterococcus faecalis (GC 4554) (Enterococcus sp.; strain GC 4554): 2 µg/mL (≈ 1.3 µM) | MIC Enterococcus faecium (GC 4556) (Enterococcus sp.; strain GC 4556): 2 µg/mL (≈ 1.3 µM) | MIC Enterococcus faecium (GC 4557) (Enterococcus sp.; strain GC 4557): 2 µg/mL (≈ 1.3 µM) | MIC Enterococcus avium (GC 4558) (Enterococcus sp.; strain GC 4558): 2 µg/mL (≈ 1.3 µM) | MIC Enterococcus faecalis (GC 6189) (Enterococcus sp.; strain GC 6189): 2 µg/mL (≈ 1.3 µM) | MIC Streptococcus agalactiae (GC 4564) (Streptococcus sp.; Streptococcus agalactiae (GC 4564)): 0.12 µg/mL (≈ 0.078 µM) | MIC Streptococcus pneumoniae (ATCC 6301) (Streptococcus sp.; Streptococcus pneumoniae (ATCC 6301)): <0.06 µg/mL | MIC Streptococcus pneumoniae (GC 1894) (Streptococcus sp.; Streptococcus pneumoniae (GC 1894)): <0.06 µg/mL | MIC Streptococcus pneumoniae (GC 4565) (Streptococcus sp.; Streptococcus pneumoniae (GC 4565)): <0.06 µg/mL | MIC Streptococcus pyogenes (GC 4563) (Streptococcus sp.; Streptococcus pyogenes (GC 4563)): <0.06 µg/mL | MIC Streptococcus pneumoniae (ATCC 6301) (Streptococcus sp.; strain ATCC 6301): <0.06 µg/mL | MIC Streptococcus pneumoniae (GC 1894) (Streptococcus sp.; strain GC 1894): <0.06 µg/mL | MIC Streptococcus pyogenes (GC 4563) (Streptococcus sp.; strain GC 4563): <0.06 µg/mL | MIC Streptococcus agalactiae (GC 4564) (Streptococcus sp.; strain GC 4564): 0.12 µg/mL (≈ 0.078 µM) | MIC Streptococcus pneumoniae (GC 4565) (Streptococcus sp.; strain GC 4565): <0.06 µg/mL | MIC Escherichia coli (ATCC 25922) (Escherichia coli; strain ATCC 25922): 32 µg/mL (≈ 20.8 µM) | MIC Escherichia coli (GC 4559) (Escherichia coli; strain GC 4559): 32 µg/mL (≈ 20.8 µM) | MIC Escherichia coli (GC 4560) (Escherichia coli; strain GC 4560): 1 µg/mL (≈ 0.65 µM) | median effective dose (ED50), Staphylococcus aureus-SMITH (GC 4543) [1]: 0.26 mg/kg | median effective dose (ED50), Enterococcus faecalis (GC 6189) [2]: 1.04 mg/kg
